Columns and labels:
hCA I = hCA I (Homo sapiens, UniProt P00915); experiment: stopped-flow CO2 hydrase assay, hCA I; type: biochemical; conditions: incubation time 6 h, mean of three experiments
Procedure: (§1) The target coumarins 5a–p and 7a–c were examined for their CA inhibitory actions towards the ubiquitous CA I and II (cytosolic) as well as the tumour-associated CA IX and XII isozymes by the use of a stopped-flow CO2 hydrase assay, using acetazolamide (AZA) as a reference compound.
(§2) The experimental procedures utilised for CA inhibitory assay of the target compounds were carried out as described earlier, and presented in the Supplementary Materials.

hCA II = hCA II (Homo sapiens, UniProt P00918); experiment: stopped-flow CO2 hydrase assay, hCA II; type: biochemical; conditions: incubation time 6 h, mean of three experiments
Procedure: as §1, §2

hCA IX = hCA IX (Homo sapiens, UniProt Q16790); experiment: stopped-flow CO2 hydrase assay, hCA IX; type: biochemical; conditions: incubation time 6 h, mean of three experiments
Procedure: as §1, §2

hCA XII = hCA XII (Homo sapiens, UniProt O43570); experiment: stopped-flow CO2 hydrase assay, hCA XII; type: biochemical; conditions: incubation time 6 h, mean of three experiments
Procedure: as §1, §2

HCT-116 cells = experiment: MTT antiproliferative assay, HCT-116; type: cell-based, human; conditions: Homo sapiens, mean ± SEM of three experiments; for inhibition at 10 µM: HCT-116, HCT116, 10 µM, read-out: % Growth inhibition HCT116 10 µM; for inhibition at 100 µM: HCT-116, HCT116, 100 µM, read-out: % Growth inhibition HCT116 100 µM
Procedure: (§3) Encouraged by the favourable selectivity profile of ureidocoumarins 5a–p and amidocoumarins 7a–c towards hCA IX and hCA XII, they were further examined for their prospective antiproliferative activity against human colorectal (HCT-116) and breast (MCF-7) cancer cell lines, adopting the MTT assay.
(§4) The evaluation of anticancer activity of the target compounds was conducted by MTT assay adopting the literature procedure.

MCF-7 cells = experiment: MTT antiproliferative assay, MCF-7; type: cell-based, human; conditions: Homo sapiens, mean ± SEM of three experiments; for inhibition at 10 µM: MCF7, MCF7, 10 µM, read-out: % Growth inhibition MCF7 10 µM; for inhibition at 100 µM: MCF7, MCF7, 100 µM, read-out: % Growth inhibition MCF7 100 µM
Procedure: as §3, §4

Chain of hCA I (P00915 whole entry): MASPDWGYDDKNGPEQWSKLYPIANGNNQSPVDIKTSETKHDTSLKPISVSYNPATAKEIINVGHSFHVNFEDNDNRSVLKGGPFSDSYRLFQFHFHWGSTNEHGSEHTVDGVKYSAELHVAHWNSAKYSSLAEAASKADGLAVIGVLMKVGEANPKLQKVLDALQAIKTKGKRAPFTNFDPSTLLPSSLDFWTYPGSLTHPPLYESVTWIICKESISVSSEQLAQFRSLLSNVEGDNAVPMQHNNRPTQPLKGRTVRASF
Chain of hCA XII (O43570 25-354): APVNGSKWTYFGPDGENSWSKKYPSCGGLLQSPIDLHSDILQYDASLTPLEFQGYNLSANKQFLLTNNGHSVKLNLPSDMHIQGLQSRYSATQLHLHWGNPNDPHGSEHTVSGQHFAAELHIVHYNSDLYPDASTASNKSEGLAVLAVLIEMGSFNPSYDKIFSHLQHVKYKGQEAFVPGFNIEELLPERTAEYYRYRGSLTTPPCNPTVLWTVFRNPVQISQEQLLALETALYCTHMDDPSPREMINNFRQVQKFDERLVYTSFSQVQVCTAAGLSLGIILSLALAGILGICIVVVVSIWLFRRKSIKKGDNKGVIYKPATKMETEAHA

| SMILES | Ki (hCA I) | Ki (hCA II) | Ki (hCA IX) | Ki (hCA XII) | inhibition at 10 µM (HCT-116 cells) | inhibition at 100 µM (HCT-116 cells) | inhibition at 10 µM (MCF-7 cells) | inhibition at 100 µM (MCF-7 cells) | melting point |
| --- | --- | --- | --- | --- | --- | --- | --- | --- | --- |
| CCCCc1ccc(NC(=O)Nc2ccc3oc(=O)ccc3c2)cc1 [Compound 5e, 1-(4-Butylphenyl)-3-(2-oxo-2H-chromen-6-yl)urea] | > 100 µM | > 100 µM | 54.7 nM | 95.1 nM | 20.1 ± 2.5% | 65 ± 6% | 38.2 ± 2.5% | 46.4 ± 4.9% | 223 to 224 °C |
| O=C(Nc1ccc(F)cc1)Nc1ccc2oc(=O)ccc2c1 [Compound 5c, 1-(4-Fluorophenyl)-3-(2-oxo-2H-chromen-6-yl)urea] | > 100 µM | > 100 µM | 41.5 nM | 40.2 nM | 10.9 ± 1.6% | 31.3 ± 4.6% | 9.5 ± 4.2% | 13.5 ± 4.3% | 249 to 250 °C |
| O=C(Nc1ccc(F)c(Cl)c1)Nc1ccc2oc(=O)ccc2c1 [Compound 5h, 1-(3-Chloro-4-fluorophenyl)-3-(2-oxo-2H-chromen-6-yl)urea] | > 100 µM | > 100 µM | 24.1 nM | 10.3 nM | 11.9 ± 1.5% | 92.3 ± 1.2% | 16.9 ± 5.3% | 91.2 ± 1% | 232 to 233 °C |
| O=C(Nc1ccc2oc(=O)ccc2c1)Nc1c(Br)cc(F)cc1Br [Compound 5p, 1-(2,6-Dibromo-4-fluorophenyl)-3-(2-oxo-2H-chromen-6-yl)urea] | > 100 µM | > 100 µM | 72.8 nM | 50.4 nM | 14.1 ± 3% | 75.2 ± 5.8% | 21.4 ± 3% | 79.5 ± 2.4% | – |
| O=C(Nc1cccc(C(F)(F)F)c1)Nc1ccc2oc(=O)ccc2c1 [Compound 5a, 1-(2-Oxo-2H-chromen-6-yl)-3-(3-(trifluoromethyl)phenyl)urea] | > 100 µM | > 100 µM | 45.9 nM | 26.2 nM | 8 ± 4.8% | 21.9 ± 4.6% | 3.7 ± 1.9% | 34.7 ± 4.4% | 252 to 254 °C |
| Cc1cc(C)cc(NC(=O)Nc2ccc3oc(=O)ccc3c2)c1 [Compound 5k, 1-(3,5-Dimethylphenyl)-3-(2-oxo-2H-chromen-6-yl)urea] | > 100 µM | > 100 µM | 42.9 nM | 27.4 nM | 14.5 ± 2.7% | 87.4 ± 1.8% | 33.2 ± 3.2% | 66.7 ± 5% | 238 to 239 °C |
| O=C(Nc1ccc2oc(=O)ccc2c1)c1cc(C(F)(F)F)cc(C(F)(F)F)c1 [Compound 7b, N-(2-Oxo-2H-chromen-6-yl)-3,5-bis(trifluoromethyl)benzamide] | > 100 µM | > 100 µM | 55.6 nM | 37.5 nM | 19.6 ± 2.4% | 76 ± 2.5% | 11.3 ± 4% | 62.9 ± 6.4% | 240 to 241 °C |
| O=C(Nc1ccc(C(F)(F)F)cc1)Nc1ccc2oc(=O)ccc2c1 [Compound 5b] | > 100 µM | > 100 µM | 71.4 nM | 38.5 nM | 7.6 ± 2.8% | 77 ± 4% | 4.2 ± 1.4% | 77.8 ± 5.1% | 276 to 278 °C |
| O=C(Nc1ccc2oc(=O)ccc2c1)c1ccc(Cl)c(C(F)(F)F)c1 [Compound 7a, 4-Chloro-N-(2-oxo-2H-chromen-6-yl)-3-(trifluoromethyl)benzamide] | > 100 µM | > 100 µM | 82.4 nM | 42.8 nM | 14 ± 2.4% | 42.2 ± 2.5% | 9.9 ± 3.4% | 19 ± 2.1% | 272 to 273 °C |
| O=C(Nc1ccc(Br)cc1)Nc1ccc2oc(=O)ccc2c1 [Compound 5d, 1-(4-Bromophenyl)-3-(2-oxo-2H-chromen-6-yl)urea] | > 100 µM | > 100 µM | 70.6 nM | 51.1 nM | 25.4 ± 2.7% | 31.7 ± 3.5% | 18.2 ± 3.2% | 18.5 ± 4.5% | 257 to 258 °C |

— paper PMC9897768, “Discovery of new 6-ureido/amidocoumarins as highly potent and selective inhibitors for the tumour-relevant carbonic anhydrases IX and XII” (Journal of Enzyme Inhibition and Medicinal Chemistry, 2023)
